Experimental data: patent US20200062696A1, “COMPOSITIONS AND METHODS FOR INHIBITING RETICULON 4” (THE REGENTS OF THE UNIVERSITY OF CALIFORNIA, priority 2017, published 2020)

How the values were obtained:
[1] = tested on: U2OS cells expressing GFP-tagged Sec61β; experiment: Time-lapse imaging of mitosis and nuclear envelope in U2OS cells expressing GFP-Sec61β; type: cell-based; conditions: DKM 3-30 50 μM
Experimental: FIGS. 4A-4C. DKM 3-30 disrupts nuclear envelope morphology during mitosis. (FIGS. 4A-4C) U2OS cells expressing GFP-tagged Sec61β were treated with vehicle (DMSO) or DKM 3-30 (50 μM) and the ER morphology of mitotic cells visualized by time-lapse fluorescence microscopy. Time (min) is indicated on each panel. Panels (FIGS. 4A, 4B) provide examples of mitotic cells. Enlarged images following mitosis show the nuclear envelope. White arrowheads indicate a GFP-Sec61β structure bisecting the nucleus of a cell incubated with DKM 3-30. […] Bottom panels indicate boxed region.
Fluorescence microscopy. SW620 and U2OS cells were transiently transfected with a plasmid encoding GFP-tagged Sec61β using fuGENE6 (Roche) according to the manufacturer's instructions. Transfected cells plated on poly-L-lysine treated coverslips were treated, washed in PBS, and fixed by incubation in 4% paraformaldehyde in PBS for 10 min. Fixed cells were washed extensively in PBS and nuclei stained by addition of 4′,6-diamidino-2-phenylindole (DAPI) (Thermo Fisher Scientific) for 10 min. Coverslips were mounted using Fluoromount-G (SouthernBiotech) and visualized using a DeltaVision Elite microscope outfitted with a 60× oil immersion objective. Acquired stacks of images of fixed cells were deconvolved and analyzed using SoftWoRx and ImageJ. […] Acquired images were analyzed using SoftWoRx and ImageJ.

[2] = tested on: MEF cells expressing human RTN4-GFP; experiment: Apoptosis (propidium iodine and Annexin-V, flow cytometry) in MEF cells expressing human RTN4-GFP; type: cell-based, mouse; conditions: DKM 3-30 50 μM, 0, 8 or 16 h
Experimental: FIG. 12. Effect of DKM 3-30 in Mouse Embryonic Fibroblast (MEF) cells expressing human RTN4. C1101 in human RTN4 is instead a serine in mouse RTN4. […] GFP or RTN4-GFP expressing MEF cells were treated with DKM 3-30 (50 μM) for 0, 8, or 16 h and apoptotic cells (propidium iodine positive and Annexin-V positive) were assessed by flow cytometry. Data are presented as mean±sem. Significance is expressed as *p<0.05 compared to 0 h time-point.

[3] = tested on: SW620 tumor xenograft; experiment: SW620 tumor xenograft growth in immune-deficient SCID mice; type: in vivo; conditions: 50 mg/kg ip once per day, started ten days after subcutaneous injection of SW620 cells
Experimental: Tumor Xenograft Growth Studies. C.B17 SCID male mice (6-8 weeks old) were injected subcutaneously into the flank with 2,000,000 cells in serum-free media. For pharmacological treatments, mice were exposed by intraperitoneal (ip) injection with either vehicle (18:1:1 PBS/ethanol/PEG40) or 50 mg/kg DKM 3-30 once per day starting ten days after the initiation of the xenograft experiment and until the completion of the study. Tumors were measured every 7 days by caliper measurements. Animal experiments were conducted in accordance with the guidelines of the Institutional Animal Care and Use Committee of the University of California, Berkeley.

[4] = tested on: U2OS cells expressing GFP-tagged Sec61β; experiment: ER morphology by fluorescence microscopy in U2OS cells expressing GFP-Sec61β; type: cell-based
Experimental: Fluorescence microscopy. SW620 and U2OS cells were transiently transfected with a plasmid encoding GFP-tagged Sec61β using fuGENE6 (Roche) according to the manufacturer's instructions. Transfected cells plated on poly-L-lysine treated coverslips were treated, washed in PBS, and fixed by incubation in 4% paraformaldehyde in PBS for 10 min. Fixed cells were washed extensively in PBS and nuclei stained by addition of 4′,6-diamidino-2-phenylindole (DAPI) (Thermo Fisher Scientific) for 10 min. Coverslips were mounted using Fluoromount-G (SouthernBiotech) and visualized using a DeltaVision Elite microscope outfitted with a 60× oil immersion objective. Acquired stacks of images of fixed cells were deconvolved and analyzed using SoftWoRx and ImageJ. For time-lapse imaging of live cells, transfected cells were plated on poly-L-lysine treated glass-bottom 4-well imaging chambers (Lab-Tek II; Thermo Fisher Scientific). Imaging was performed using a DeltaVision Elite microscope encased in a chamber that was maintained at 37° C. and was continuously perfused with humidified 5% CO2. Acquired images were analyzed using SoftWoRx and ImageJ.

[5] = Body weight and overt toxicity of mice in the tumor xenograft study; type: in vivo; conditions: 50 mg/kg ip once per day, weighed at the end of the study
Experimental: Mice from tumor xenograft studies shown in FIG. 1E were weighed at the end of the study. […] Data are presented as mean±sem, n=8 mice/group.
Tumor Xenograft Growth Studies. C.B17 SCID male mice (6-8 weeks old) were injected subcutaneously into the flank with 2,000,000 cells in serum-free media. […] Tumors were measured every 7 days by caliper measurements.

[6] = tested on: SW620 colorectal cancer cells; experiment: Serum-free cell survival of SW620 cells (Hoescht staining); type: cell-based; conditions: 48 h, vs DMSO, average of n = 3/group

For `C=CC(=O)Nc1ccc(Oc2ccc(Cl)cc2)cc1` [DKM 3-30, N-(4-(4-chlorophenoxy)phenyl)acrylamide], the “nuclear envelope morphology following mitosis” value [1] was “aberrant nuclei that were bisected by GFP-Sec61β positive structures”, the duration of mitosis ([1]; control cells ~50-60 min) was 3 to 4 h and the “apoptosis in MEF cells expressing human RTN4-GFP” value [2] was “induces apoptosis”. For the same compound, the tumor xenograft growth [3] was “initial regression and a sustained impairment in tumor growth”, the “ER morphology in U2OS cells” value ([4]; DKM 3-30 50 μM (8 hr, 16 hr, time-lapse), AMR 1-125 1 μM, YP 1-46 50 μM) was “striking loss of nearly all peripheral ER tubules and an increase in ER that exhibited sheet-like morphology” and the “time at which alterations in the ER morphology were evident” value ([4]; DKM 3-30 50 μM, time-lapse imaging) was 0.5-1 hr. The “body weight and signs of overt toxicity” value [5] was “without any changes in body weight or any signs of overt toxicity”, the viability at 50 µM ([6]; Homo sapiens, SW-620, cysteine-reactive fragment 50 μM, read-out: SW620 survival Ave) was 31% and the “SW620 survival Ave” value ([6]; cysteine-reactive fragment 50 μM) was “significantly impaired”.
